These compounds were tested on PDE 4 (assay: Inhibition of PDE 4 activity (method of Bauer and Schwabe, adapted to microtiter plates)). Conditions: Table A.
Format: biochemical
In the case of `COc1cc2c(cc1OC)[C@@H]1CCCC[C@@H]1N=C2c1ccc(S(=O)(=O)Nc2ccc(C)cc2)cc1` (single isomer, unassigned) [Compound 5, (-)-cis-8,9-Dimethoxy-6-(4-p-tolylsulfamoylphenyl)-1,2,3,4,4a,10b-hexahydrophenanthridine], the “inhibitory concentration as -log IC50 (mol/l), Inhibition of PDE 4 activity” value (from here on “inhibitory concentration as -log IC50”) is reported as 8.30. In the case of `CCOc1cc2c(cc1OC)C(c1ccc(S(=O)(=O)Nc3ccc(C)cc3)cc1)=N[C@H]1CCCC[C@@H]21` (racemic) [Compound 3, (+/-)-cis-9-Ethoxy-8-methoxy-6-(4-p-tolylsulfamoylphenyl)-1,2,3,4,4a,10b-hexahydrophenanthridine], the “inhibitory concentration as -log IC50” value is reported as 9.24. With `CCOc1cc2c(cc1OC)C(c1ccc(C(=O)Nc3cccnc3)cc1)=NC1CCCCC21` (mixture of isomers) [Compound 6, (+/-)-cis-9-Ethoxy-8-methoxy-6-(4-pyrid-3-ylamidophenyl)-1,2,3,4,4a,10b-hexahydrophenanthridine] the “inhibitory concentration as -log IC50” value was 8.66. With `CCCN(CCC)S(=O)(=O)c1ccc(C2=N[C@H]3CCCC[C@H]3c3cc(OCC)c(OC)cc32)cc1` (racemic) [Compound 2, (+/-)-cis-9-Ethoxy-8-methoxy-6-(4-dipropylsulfamoylphenyl)-1,2,3,4,4a,10b-hexahydrophenanthridine] the “inhibitory concentration as -log IC50” value was 9.25. With `CCOc1cc2c(cc1OC)C(c1ccc(S(N)(=O)=O)cc1)=N[C@H]1CCCC[C@@H]21` (racemic) [Compound 1, (+-)-cis-9-Ethoxy-8-methoxy-6-(4-sulfamoylphenyl)-1,2,3,4,4a,10b-hexahydrophenanthridine] the “inhibitory concentration as -log IC50” value was 8.55.
